Measurements reported in BindingDB's records for doi:10.1074/jbc.272.51.31949 (Schering-Plough Research Institute, 1997).
Where a SMILES comes first, the peptide text is derived from it. [ ]: non-standard residue; d: D form.

Assays:
Galanin receptor type 3 = target: T1, Galanin receptor type 3 (Rattus norvegicus, UniProt O88626)
T1 sequence (O88626 whole entry): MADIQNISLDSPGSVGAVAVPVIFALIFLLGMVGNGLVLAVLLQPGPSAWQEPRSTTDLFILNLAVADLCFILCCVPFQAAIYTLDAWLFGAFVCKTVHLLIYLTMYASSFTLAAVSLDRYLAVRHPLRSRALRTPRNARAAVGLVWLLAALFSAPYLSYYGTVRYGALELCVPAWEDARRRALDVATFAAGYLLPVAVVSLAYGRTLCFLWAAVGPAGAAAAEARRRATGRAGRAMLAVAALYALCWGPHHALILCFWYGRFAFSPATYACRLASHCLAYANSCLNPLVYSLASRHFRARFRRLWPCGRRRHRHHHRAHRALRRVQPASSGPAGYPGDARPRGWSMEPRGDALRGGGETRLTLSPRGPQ

Galanin receptor type 2 = target: T2, Galanin receptor type 2 (Rattus norvegicus, UniProt O08726)
T2 sequence (O08726 whole entry): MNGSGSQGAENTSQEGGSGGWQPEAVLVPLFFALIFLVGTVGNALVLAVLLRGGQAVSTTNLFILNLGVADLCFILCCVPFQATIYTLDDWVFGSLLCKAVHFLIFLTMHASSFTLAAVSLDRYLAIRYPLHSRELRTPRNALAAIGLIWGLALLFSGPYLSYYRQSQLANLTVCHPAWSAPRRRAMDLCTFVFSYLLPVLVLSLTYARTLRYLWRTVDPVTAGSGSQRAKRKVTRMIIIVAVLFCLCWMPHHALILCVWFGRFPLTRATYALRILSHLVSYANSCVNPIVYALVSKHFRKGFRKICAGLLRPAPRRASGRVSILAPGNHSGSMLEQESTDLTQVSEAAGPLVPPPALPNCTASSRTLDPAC

Compound | Ki (Galanin receptor type 3) | Ki (Galanin receptor type 2)
CC(C)C[C@H](NC(=O)[C@H](CC(C)C)NC(=O)[C@H](Cc1ccc(O)cc1)NC(=O)CNC(=O)[C@H](C)NC(=O)[C@H](CO)NC(=O)[C@H](CC(N)=O)NC(=O)[C@H](CC(C)C)NC(=O)[C@@H](NC(=O)[C@H](Cc1c[nH]c2ccccc12)NC(=O)CN)[C@@H](C)O)C(=O)NCC(=O)N1CCC[C@H]1C(=O)N1CCC[C@H]1C(=O)N1CCC[C@H]1C(=O)NCC(=O)N[C@@H](Cc1ccccc1)C(=O)N[C@@H](CO)C(=O)N1CCC[C@H]1C(=O)N[C@@H](Cc1ccccc1)C(=O)N[C@@H](CCCN=C(N)N)C(N)=O | 7.5 nM | 
CCC(C)C(NC(=O)C(C)NC(=O)C(Cc1cnc[nH]1)NC(=O)C1CCCN1C(=O)CNC(=O)C(CC(C)C)NC(=O)C(CC(C)C)NC(=O)C(Cc1ccc(O)cc1)NC(=O)CNC(=O)C(C)NC(=O)C(CO)NC(=O)C(CC(N)=O)NC(=O)C(CC(C)C)NC(=O)C(NC(=O)C(Cc1c[nH]c2ccccc12)NC(=O)CN)C(C)O)C(=O)NC(CC(=O)O)C(=O)NC(CC(N)=O)C(=O)NC(Cc1cnc[nH]1)C(=O)NC(CCCN=C(N)N)C(=O)NC(CO)C(=O)NC(Cc1ccccc1)C(=O)NC(CO)C(=O)NC(CC(=O)O)C(=O)NC(CCCCN)C(=O)NC(Cc1cnc[nH]1)C(=O)NCC(=O)NC(CC(C)C)C(=O)NC(C(=O)NCC(N)=O)C(C)O (stereo unspecified) [CAS_132699-74-2] | > 1000 nM | 
CC(C)C[C@H](NC(=O)[C@H](CC(C)C)NC(=O)[C@@H](Cc1c[nH]c2ccccc12)NC(=O)[C@H](Cc1ccccc1)NC(=O)[C@@H](Cc1c[nH]c2ccccc12)NC(=O)[C@H](CCC(N)=O)NC(=O)[C@H](CCC(N)=O)NC(=O)[C@@H]1CCCN1C(=O)[C@H](CCCCN)NC(=O)[C@@H]1CCCN1C(=O)[C@@H](CCCNC(=N)N)NC(=O)[C@@H]1CCCN1C(=O)CNC(=O)[C@H](CC(C)C)NC(=O)[C@H](CC(C)C)NC(=O)[C@H](Cc1ccc(O)cc1)NC(=O)CNC(=O)[C@H](C)NC(=O)[C@H](CO)NC(=O)[C@H](CC(N)=O)NC(=O)[C@H](CC(C)C)NC(=O)[C@@H](NC(=O)[C@H](Cc1c[nH]c2ccccc12)NC(=O)CN)[C@@H](C)O)C(N)=O [Gal(1-13)-Std I] (H-GWTLNSAGYLLGP[dR]PKPQQ[dW]F[dW]LL-NH2) | 0.75 nM | 
CC(C)C[C@H](NC(=O)[C@H](CC(C)C)NC(=O)[C@@H](Cc1c[nH]c2ccccc12)NC(=O)[C@@H](Cc1c[nH]c2ccccc12)NC(=O)[C@H](C)NC(=O)[C@H](NC(=O)[C@H](CC(N)=O)NC(=O)[C@H](CC(C)C)NC(=O)[C@@H](NC(=O)[C@H](Cc1c[nH]c2ccccc12)NC(=O)CN)[C@@H](C)O)[C@H](C)O)C(=O)NCC(=O)N1CCC[C@H]1C(=O)N[C@@H](Cc1cnc[nH]1)C(=O)N[C@@H](C)CO [Gal-(1-15)-ol,[d-Thr6,d-Trp8,9]] | 1000 nM | 
CC(C)C[C@H](NC(=O)[C@H](CC(C)C)NC(=O)[C@H](Cc1ccc(O)cc1)NC(=O)[C@@H](Cc1c[nH]c2ccccc12)NC(=O)[C@H](C)NC(=O)[C@H](C)NC(=O)[C@H](CC(N)=O)NC(=O)[C@H](CC(C)C)NC(=O)[C@@H](NC(=O)[C@H](Cc1c[nH]c2ccccc12)NC(=O)CN)[C@@H](C)O)C(=O)NCC(=O)N1CCC[C@H]1C(=O)N[C@@H](Cc1cnc[nH]1)C(=O)N[C@@H](C)CO [Galanin (1-15)-ol,[Ala6,D-trp8]] | 17.9 nM | 
CC[C@H](C)[C@H](NC(=O)[C@H](C)NC(=O)[C@H](Cc1c[nH]cn1)NC(=O)[C@@H]1CCCN1C(=O)CNC(=O)[C@H](CC(C)C)NC(=O)[C@H](CC(C)C)NC(=O)[C@H](Cc1ccc(O)cc1)NC(=O)CNC(=O)[C@H](C)NC(=O)[C@H](CO)NC(=O)[C@H](CC(N)=O)NC(=O)[C@H](CC(C)C)NC(=O)[C@@H](N)[C@@H](C)O)C(=O)N[C@@H](CC(=O)O)C(=O)N[C@@H](CC(N)=O)C(=O)N[C@@H](Cc1c[nH]cn1)C(=O)N[C@@H](CCCNC(=N)N)C(=O)N[C@@H](CO)C(=O)N[C@@H](Cc1ccccc1)C(=O)N[C@@H](CO)C(=O)N[C@@H](CC(=O)O)C(=O)N[C@@H](CCCCN)C(=O)N[C@@H](Cc1c[nH]cn1)C(=O)NCC(=O)N[C@@H](CC(C)C)C(=O)N[C@H](C(N)=O)[C@@H](C)O [Galanin (3-29), rat] | 1000 nM | 
CC[C@H](C)[C@H](NC(=O)[C@H](C)NC(=O)[C@H](Cc1c[nH]cn1)NC(=O)[C@@H]1CCCN1C(=O)CNC(=O)[C@H](CC(C)C)NC(=O)[C@H](CC(C)C)NC(=O)[C@H](Cc1ccc(O)cc1)NC(=O)CNC(=O)[C@H](C)NC(=O)[C@H](CO)NC(=O)[C@H](CC(N)=O)NC(=O)[C@H](CC(C)C)NC(=O)[C@@H](NC(=O)[C@@H](N)Cc1c[nH]c2ccccc12)[C@@H](C)O)C(=O)N[C@@H](CC(=O)O)C(=O)N[C@@H](CC(N)=O)C(=O)N[C@@H](Cc1c[nH]cn1)C(=O)N[C@@H](CCCNC(=N)N)C(=O)N[C@@H](CO)C(=O)N[C@@H](Cc1ccccc1)C(=O)N[C@@H](CO)C(=O)N[C@@H](CC(=O)O)C(=O)N[C@@H](CCCCN)C(=O)N[C@@H](Cc1c[nH]cn1)C(=O)NCC(=O)N[C@@H](CC(C)C)C(=O)N[C@H](C(N)=O)[C@@H](C)O [Galanin Porcine 2-29] | 12.6 nM | 1.92 nM
CC[C@H](C)[C@H](NC(=O)[C@H](C)NC(=O)[C@H](Cc1cnc[nH]1)NC(=O)[C@@H]1CCCN1C(=O)CNC(=O)[C@H](CC(C)C)NC(=O)[C@H](CC(C)C)NC(=O)[C@H](Cc1ccc(O)cc1)NC(=O)CNC(=O)[C@H](C)NC(=O)[C@H](CO)NC(=O)[C@H](CC(N)=O)NC(=O)[C@H](CC(C)C)NC(=O)[C@@H](NC(=O)[C@H](Cc1c[nH]c2ccccc12)NC(=O)CN)[C@@H](C)O)C(=O)N[C@@H](CC(=O)O)C(=O)N[C@@H](CC(N)=O)C(=O)N[C@@H](Cc1cnc[nH]1)C(N)=O [Galanin rat] | 6.25 nM | 4.7 nM
H-ELEPEDEARPGGFDRLQSQDKAIRTIMEFLAFLHLKEAGAL-NH2 [GMAP (1-41)] | 1000 nM | 
H-GWTLNSAGYLLGPPPALALA-NH2 [M40] | 54 nM | 2.88 nM
H-LLGPHAIDNHRSFSDKHGLT-NH2 [Galanin (10-29), rat] | 1000 nM | 
H-LPGLPSAASSEDAGQS-NH2 [CAS_125455-59-6] | > 1000 nM | 1000 nM
